Usually IC50 stands for the concentration that gives 50% inhibition. Low readings indicate greater potency in that assay, high ones weaker potency in that assay.

Read-outs that look alike come from different tables or passages of the source.

Data set [1] concerns L1210 leukemia. The protocol: The compounds were tested in male BDF1 mice (18-22 g, 6 mice/group) bearing L1210 leukemia cells. Tumor lines were propagated in DBA/2 female mice with cell (10^5 cells/mouse) transfer every 7 days. Diluted ascitic fluid (0.1 mL) containing 10^5 leukemia cells were inoculated, i.p. in mice on day 0. Mice were injected with 0.1 mL of drug preparation.
A conjugate of HCPT and piperidinopiperidine, PP-HCPT, was synthesized, and its antitumor activity was evaluated against L1210 leukemia in mice.
DHA-HCPT was also tested using multiple doses (days 1, 5 and 9).

Data set [2] concerns L1210 leukemia cells. As to the kind of experiment: Anticancer activity assay in vitro: 48-h 3H-thymidine incorporation (proliferation) assay. Particulars: for IC50: L1210 leukemia cells, 48-h proliferation assay, 3H-thymidine uptake, mean of three experiments; for DNA fragmentation / apoptosis: L1210 cells, data not shown. It is filed as cell-based, murine. The protocol: L1210 leukemia cells (2.5×10^4cells/well) in RPMI-1640 medium supplemented with 10% FCS medium were seeded in a 96-well plate. Drugs (10 μL) at increasing concentrations were added to each well, and the total volume was adjusted to 0.1 mL/well using the same medium. HCPT was used as a positive control. The plate was incubated for 24 h at 37° C. followed by addition of 10 μL of ^3H-thymidine (20 μCi/mL). The plate was incubated for another 24 h. The cells were harvested, and radioactivity was counted using the Packard Matrix 96 beta counter. The results were expressed as the minimal concentration that inhibits ^3H-thymidine incorporation by 50% (IC50). Percent growth inhibition was calculated as follows: [(total cpm—experimental cpm)/total cpm]×100. […] Doxorubicin (Dox) was used as a positive control.

For data set [3], the system named is Lewis lung carcinoma. In words: Antitumor activity against Lewis lung carcinoma in mice. In kind it is in vivo. As for the experimental part:
For example, at a dose of 120 mg/kg, it inhibited tumor growth by 83% while the bodyweight loss was only 10%. The parent HCPT inhibited tumor growth by 57% at a dose of 20 mg/kg with a 24% weight loss. The group treated with DHA-HCPT also lived longer.

Data set [4] relates to colon 38 carcinoma. In words: Antitumor activity against colon 38 carcinoma in mice (single dose, early stage and late stage). In kind it is in vivo. Conditions: for weight loss: stated as loss. The text has this: However, DHA-HCPT (weight loss of 16%) is less toxic than cisplatin (weight loss of 20%).
The first experiment was designed to evaluate the antitumor activity of the drugs against early tumor, i.e., the tumors were transplanted on day 0, and the drugs were given beginning the next day. The second experiment was designed to evaluate the drug's activity against the established tumor, i.e., the tumors were transplanted on day 0, and the drugs were given when the tumors grew to 3-4 mm in size.
In the late tumor model, at a dose of 100 mg/kg, DHA-HCPT inhibited tumor growth by 80% (Table 10).

The mark [5] stands for this setting: 125 mg/kg i.p. on days 1, 5 and 9.
[6] abbreviates: 150 mg/kg i.p. on days 1, 5 and 9.
Where [7] appears, read: L1210, 48-h cell growth inhibition assay.
Where [8] appears, read: 5 mg/kg i.p. on days 1, 5, and 9.
Where [9] appears, read: 100 mg/kg i.p. on days 1, 5, and 9.
[10] abbreviates: 120 mg/kg i.p. on days 1, 5 and 9.
The mark [11] stands for this setting: early stage, 67 mg/kg i.p. on days 1, 5 and 9.
Setting [12] is: early stage, 100 mg/kg i.p. on days 1, 5 and 9.
[13] abbreviates: late stage, 100 mg/kg i.p. on days 9, 13 and 17.

In the case of `O=P1(N(CCCl)CCCl)NCCCO1` (stereo not drawn) [Cyclophosphamide, reference compound], the “% ILS” value in data set [1] (setting [5]) is 173%; in data set [1] (200 mg/kg i.p. on day 1), 123%. The “% Weight change” value is −15% in data set [1] (setting [5]) and −9% in data set [1] (200 mg/kg i.p. on day 1). In data set [1] (125 mg/kg i.p. on days 1, 5 and 9, 6 mice/group), the “30-day survivors (cures)” value was 0. In data set [1] (200 mg/kg i.p. on day 1, 6 mice/group), this molecule came in with a 30-day survivors of 0.

In turn, `COc1cccc2c1C(=O)c1c(O)c3c(c(O)c1C2=O)C[C@@](O)(C(=O)CO)C[C@@H]3O[C@H]1C[C@H](N)[C@H](O)[C@H](C)O1` [Dox, Doxorubicin, reference compound] had an IC50 in data set [2] (Mus musculus) of 0.18 ± 0.09 µM.

Turning to `CC[C@@]1(O)C(=O)OCc2c1cc1n(c2=O)Cc2cc3cc(O)ccc3nc2-1` [HCPT, 10-hydroxycamptothecin, reference compound], the “% ILS” value in data set [3] (20 mg/kg i.p. on day 1) worked out at 16%; in data set [1] (15 mg/kg i.p. on day 1), 77%; in data set [1] (20 mg/kg i.p. on day 1), 108%. Further, the “% TGI” value in data set [3] (20 mg/kg i.p. on day 1) turned out to be 57%. For the same molecule, the “% Weight change” value in data set [3] (20 mg/kg i.p. on day 1) is listed as −24%; in data set [1] (15 mg/kg i.p. on day 1), −10%; in data set [1] (20 mg/kg i.p. on day 1, BDF1 mice, day 0 to lightest weight) it was −16%. In data set [3] (20 mg/kg i.p. on day 1, control 1.77 ± 0.89), the “Tumor weight (g ± SD)” value was found to be 0.76 ± 0.59 g. In data set [3] (20 mg/kg, one dose i.p., stated as loss), the weight loss stood at 24%. Besides, in data set [1] (15 mg/kg, one dose, stated as loss), the bodyweight loss is recorded as 10%. Further, the 30-day survivors in data set [1] (20 mg/kg i.p. on day 1, 6 mice/group) is 0. Further, in data set [2], the “DNA fragmentation / apoptosis” value is “caused DNA fragmentation and cells died by apoptosis”. The IC50 in data set [2] was 0.23 µM.

Turning to `CC[C@@]1(O)C(=O)OCc2c1cc1n(c2=O)Cc2cc3cc(OC(=O)N4CCC(N5CCCCC5)CC4)ccc3nc2-1` [PP-HCPT, 10-[4-(1-Piperidino)-1-piperidino]carbonyloxycamptothecin], the figures for the “% ILS” value in data set [1] (37 mg/kg i.p. on day 1), in data set [1] (73 mg/kg i.p. on day 1) and in data set [1] (setting [6]) were 46%, 77% and 123%, respectively. For the same molecule, the “% Weight change” value in data set [1] (37 mg/kg i.p. on day 1) is reported as 5%; in data set [1] (73 mg/kg i.p. on day 1), 2%; in data set [1] (setting [6]) it was −18%. For the same molecule, the 30-day survivors in data set [1] (37 mg/kg i.p. on day 1, 6 mice/group) was 0; in data set [1] (73 mg/kg i.p. on day 1, 6 mice/group), 0. In data set [2] (setting [7]), the “fold less potent than DHA-HCPT (IC50)” value is given as 16 fold. Moreover, in data set [2] (setting [7]), the “fold less potent than HCPT (IC50)” value was 128 fold. In addition, in data set [2], inhibition was half-maximal at 30 µM (IC50).

`N.N.[Cl][Pt][Cl]` [Cisplatin, reference compound]: the “% TGI” value in data set [3] (setting [8]) stood at 73%; in data set [4] (10 mg/kg i.p. on day 1) it was 88%. Besides, the “% Weight change” value in data set [3] (setting [8]) is −19%; in data set [4] (10 mg/kg i.p. on day 1) it was −20%. Moreover, the “Tumor weight (g ± SD)” value is 0.32 ± 0.17 g in data set [3] (5 mg/kg i.p. on days 1, 5, and 9, control 1.20 ± 0.61); 0.14 ± 0.07 g in data set [4] (10 mg/kg i.p. on day 1, control 1.20 ± 0.84). The same molecule displayed a weight loss in data set [4] (given once (10 mg/kg per Table 8)) of 20%.

Regarding `CC/C=C\C/C=C\C/C=C\C/C=C\C/C=C\C/C=C\CCC(=O)Nc1ccc(CN2CCN(C(=O)Oc3ccc4nc5c(cc4c3)Cn3c-5cc4c(c3=O)COC(=O)[C@]4(O)CC)CC2)cc1` (stereo in doubt) [DHA-HCPT, 10-[4-[[4-(cis-4,7,10,13,16,19-Docosahexenoyl)amino]benzyl]-1-piperazino]carbonyl-oxycamptothecin], the “% ILS” value in data set [3] (80 mg/kg i.p. on day 1) came out at 23%; in data set [3] (120 mg/kg i.p. on day 1), 33%; in data set [1] (40 mg/kg i.p. on day 1), 108%; in data set [1] (60 mg/kg i.p. on day 1), 138%; in data set [1] (setting [10]), 323%; in data set [1] (180 mg/kg i.p. on day 1) it was 154%. For the same molecule, the “% TGI” value is 48% in data set [3] (80 mg/kg i.p. on day 1); 88% in data set [3] (setting [9]); 83% in data set [3] (120 mg/kg i.p. on day 1); 91% in data set [4] (120 mg/kg i.p. on day 1); 43% in data set [4] (setting [11]); 78% in data set [4] (setting [12]). Also, the “% TGI” value in data set [4] (early stage, 150 mg/kg i.p. on days 1 and 5) came out at 84%; in data set [4] (setting [13]), 80%; in data set [4] (late stage, 150 mg/kg i.p. on days 9 and 13) it was 79%. Moreover, the “% Weight change” value in data set [3] (80 mg/kg i.p. on day 1) is on record as −5%; in data set [3] (setting [9]) it was −9%; in data set [3] (120 mg/kg i.p. on day 1) it was −10%; in data set [1] (40 mg/kg i.p. on day 1) it was 2%; in data set [1] (60 mg/kg i.p. on day 1), 1%; in data set [1] (setting [10]), −12%. For the same molecule, the “% Weight change” value was −12% in data set [1] (180 mg/kg i.p. on day 1); −16% in data set [4] (120 mg/kg i.p. on day 1); −10% in data set [4] (setting [11]); −12% in data set [4] (setting [12]); −14% in data set [4] (setting [13]). Besides, the “Tumor weight (g ± SD)” value in data set [3] (80 mg/kg i.p. on day 1, control 1.77 ± 0.89) turned out to be 0.93 ± 0.53 g; in data set [3] (100 mg/kg i.p. on days 1, 5, and 9, control 1.20 ± 0.61), 0.15 ± 0.10 g; in data set [3] (120 mg/kg i.p. on day 1, control 1.77 ± 0.89) it was 0.31 ± 0.18 g; in data set [4] (120 mg/kg i.p. on day 1, control 1.20 ± 0.84) it was 0.11 ± 0.09 g; in data set [4] (early stage, 67 mg/kg i.p. on days 1, 5 and 9, control 1.13 ± 0.39), 0.64 ± 0.50 g; in data set [4] (early stage, 100 mg/kg i.p. on days 1, 5 and 9, control 1.13 ± 0.39) it was 0.25 ± 0.22 g. The “Tumor weight (g ± SD)” value in data set [4] (early stage, 150 mg/kg i.p. on days 1 and 5, control 1.13 ± 0.39) is given as 0.18 ± 0.12 g; in data set [4] (late stage, 100 mg/kg i.p. on days 9, 13 and 17, control 1.13 ± 0.39), 0.22 ± 0.14 g; in data set [4] (late stage, 150 mg/kg i.p. on days 9 and 13, control 1.13 ± 0.39), 0.24 ± 0.18 g. Also, in data set [3] (120 mg/kg, multiple doses (days 1, 5, and 9)), the cures was 50%. In data set [3] (120 mg/kg, one dose i.p., stated as loss), this molecule yielded a bodyweight loss of 10%. The 30-day survivors was determined as 0 in data set [1] (40 mg/kg i.p. on day 1, 6 mice/group) and 0 in data set [1] (60 mg/kg i.p. on day 1, 6 mice/group). For the same molecule, the weight loss in data set [4] (120 mg/kg given once) was 16%. Also, in data set [2] (setting [7]), the “fold less potent than HCPT (IC50)” value was 8 fold. In data set [2], the “DNA fragmentation / apoptosis” value is “caused DNA fragmentation and cells died by apoptosis”. The molecule further returned an IC50 in data set [2] of 1.8 µM.

(Values after US6759416B2, “Anticancer conjugates of camptothecin and unsaturated fatty acids” (priority 2002, dated 2004).)
